Data as given in paper PMC5538626, “Structural and functional analysis of the GABARAP interaction motif (GIM)” (EMBO Reports, 2017).
Ends that are not written are not given here.

Tests used:
LC3C = target: T1, LC3C (Homo sapiens, UniProt Q9BXW4); experiment: ITC titration of PLEKHM1-LIR peptide into LC3C; format: binding; conditions: 25°C, pH 7.0
T1 construct: modified Ub-leader (ubiquitin fusion leader) (N); made in house; host or cells: E. coli NEB T7 Express
Description: (§1) The genes for the truncated LC3A^2–121, LC3C^8–125, GABARAP^2–117 and GABARAP‐L1^2–117 proteins were cloned into pET30ΔSE vector between the BamHI and XhoI sites using previously established protocols 38. The chimeric constructs of the PLEKHM1‐LIR attached to the LC3A, GABARAP and GABARAP‐L1 proteins were prepared by inserting the oligonucleotide sequence corresponding to the PLEKHM1‐LIR peptide (P^629[…]^638) and glycine–serine linker into the BamHI site of the pET30ΔSE vector, placing the PLEKHM1‐LIR at the N‐terminal of the mature chimeric protein (similar to 31, 38). For the expression of human LC3 and GABARAP proteins for ITC and NMR experiments, plasmids with appropriate modified Ub‐leaders in pET vectors were used 39. Gene, encoding PLEKHM1‐LIR peptide, was ordered as synthetic oligonucleotides (Eurofins Genomics GmbH) and cloned into the pET39_Ub63_ vector 39 by NcoI–BamHI restriction sites. After TEV cleavage, the resulting peptide has the amino acid sequence GAMG‐P^629[…]^642, where the first four residues (GAMG) are the cloning artefact.
(§2) The chimeric constructs were expressed as a His‐tag fusion protein in E. coli BL21(DE3) cells. The cells were induced with 0.3 mM IPTG at OD600 0.6 for 16 h at 26°C. The cell pellets were lysed using mechanical sonication in lysis buffer (20 mM Tris–HCl pH 9.0, 100 mM NaCl, 10 mM imidazole, supplemented with 0.1% Triton X‐100). The proteins were purified using Ni‐NTA beads (GE Healthcare) and the His‐tag was cleaved using thrombin (Invitrogen) at room temperature for 16 h. The last step was gel filtration chromatography using a Superdex S200/300 GL column (GE Healthcare). The proteins were concentrated using spin concentrators (Vivaspin). For ITC and NMR studies, the non‐labelled and stable isotopes labelled LC3 and GABARAP proteins were obtained based on the protocols described elsewhere 30, 39. Here, E. coli NEB T7 Express culture transformed with corresponding plasmids were grown till OD600 nm = 1.0 and protein expression was induced with 0.2 mM IPTG. The cultures were incubated at 25°C for 8–12 h before cell harvesting. Isolation and purification procedures were similar to those reported in Ref. 22, 40. Before experiments, all proteins and peptides were equilibrated with a buffer containing 50 mM Na2HPO4, 100 mM NaCl at pH 7.0, and supplied with 5 mM protease inhibitor cocktail.
(§3) The protocol for preparation of non‐labelled and ^13C,^15N‐labelled PLEKHM1‐LIR peptide was slightly modified to achieve highest yield of the peptide. The 50 ml M9 culture was inoculated with NEB T7 cell transformed with pET39_Ub63‐PLEKHM1‐LIR plasmid and grown overnight at 37°. The collected cells were resuspended in 2 l of either LB or M9 media contained 1.5 g ^15N‐labelled NH4Cl and 3.0 g of ^13C‐labelled glucose. The cultures were grown at 37° till A(600 nm) = 0.9 and supplied with 1 mM of IPTG to induce Ub63‐PLEKHM1‐LIR overexpression (3 h at 37°). After that cells were harvested by centrifugation, re‐suspended in buffer contained 50 mM Tris–HCl pH = 7.9, 200 mM NaCl, 5% glycerol, 0.1 mg/ml DNase A and 4 mM protease inhibitor cocktail. After cell lysis by French press, debris was removed by centrifugation and clear supernatant was applied onto the column contained Ni‐NTA Sepharose equilibrated with the loading buffer (50 mM Tris–HCl pH = 7.9, 250 mM NaCl, 1% glycerol and 20 mM imidazole). Elution was performed with 400 mM imidazole in the same buffer. An aliquot of pure Ub63‐PLEKHM1‐LIR fractions was further purified by gel filtration on Superdex75 26 × 60 column for control ITC and analytical size exclusion chromatography experiments, remaining fusion protein was processed with the TEV‐protease and PLEKHM1‐LIR peptide was purified to 95% purity by reverse Ni‐NTA chromatography and followed gel filtration on Superdex75 26 × 60 column. Peak maximum of peptide was detected at […] (void volume 115 ml). Pure peptide was concentrated in Amicon concentrators with cut‐off of 3 kDa (> 95% retention). […]

GABARAP proteins = experiment: ITC, GABARAP proteins (range); format: binding, human
Description: All titration experiments were performed at 25°C using a VP‐ITC microcalorimeter (Malvern Instruments Ltd, UK). The ITC data were analysed with the ITC‐Origin 7.0 software with a “one‐site” binding model. The peptides at concentrations of 0.4 mM were titrated into 0.020 mM LC3 and GABARAP proteins in 26 steps. The protein and peptide concentrations were calculated from the UV absorption at 280 nm by NanoDrop spectrophotometer (Thermo Fisher Scientific, DE, USA).

GABARAP-L1 = target: T2, GABARAP-L1 (Homo sapiens, UniProt Q9H0R8); experiment: ITC titration of PLEKHM1-LIR peptide into GABARAP-L1; format: binding; conditions: 25°C, pH 7.0
T2 construct: modified Ub-leader (ubiquitin fusion leader) (N); made in house; host or cells: E. coli NEB T7 Express
T2 sequence (Q9H0R8 whole entry, the tested form may be a part): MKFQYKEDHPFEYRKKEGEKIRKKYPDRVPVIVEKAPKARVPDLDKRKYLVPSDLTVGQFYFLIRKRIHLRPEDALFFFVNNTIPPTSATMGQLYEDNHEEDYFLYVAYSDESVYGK
Description: as §1, §2, §3

[1] = system: endogenous PLEKHM1:GABARAP complex; experiment: Peptide competition in immunoprecipitation of endogenous PLEKHM1; conditions: Plekhm1 +/+ MEF lysate, 50 μM peptide, cells treated 4 h KU-0063794 (10 μM) + chloroquine (20 μM); Fig 2D
[2] = VP-ITC, one-site model, 0.4 mM peptide into 0.020 mM protein, 50 mM Na2HPO4, 100 mM NaCl

T1 sequence (Q9BXW4 whole entry, the tested form may be a part): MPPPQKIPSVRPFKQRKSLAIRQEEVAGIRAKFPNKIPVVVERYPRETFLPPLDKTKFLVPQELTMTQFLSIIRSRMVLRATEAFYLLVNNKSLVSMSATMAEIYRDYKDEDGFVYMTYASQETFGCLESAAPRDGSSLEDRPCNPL

In the case of GAMGPQQEDEWVNVQYPD [PLEKHM1‐LIR WT], the ΔH (LC3C; [2]) is reported as -8.3 ± 0.2 kcal/mol, the KA (LC3C) is reported as 0.29 ± 0.02 ×10^6 M^−1 and the “N (number of binding sites)” value (LC3C) is reported as 0.99 ± 0.02. The ΔG (LC3C) was -7.48 kcal/mol, the ΔS (LC3C) was −2.83 cal mol^−1 K^−1 and the “−T × ΔS” value (LC3C) was “+0.84 kcal mol^−1”. The Kd (GABARAP proteins) was 550 to 770 nM, the ΔH (GABARAP-L1; [2]) was -7.8 ± 0.1 kcal/mol and the KA (GABARAP-L1) was 1.3 ± 0.1 ×10^6 M^−1. The “N (number of binding sites)” value (GABARAP-L1) was 1.00 ± 0.01, the ΔG (GABARAP-L1) was -8.35 kcal/mol and the ΔS (GABARAP-L1) was “+1.94 cal mol^−1 K^−1”. The “−T × ΔS” value (GABARAP-L1) was -0.58 kcal/mol and the “effect on endogenous PLEKHM1:GABARAP interaction” value [1] was “blocked the interaction”.
